Data reported in the supplement of paper PMC12463676, “Small-molecule dissolution of stress granules by redox modulation benefits ALS models” (Nature Chemical Biology, 2025).

What follows are targets tested with NC(=O)CCCCC1CCSS1 [lipoamide] (assay: thermal stability z-score vs DMSO; higher = more thermally stabilized by treatment). Conditions: HeLa; lipoamide concentration 100 µM; arsenate co-treatment: 1 mM arsenate 1 h.
Procedure: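 Cellular thermal proteome profiling in HeLa cells. Cells were treated with 100 µM lipoamide for 1 h, with or without 1 mM arsenate for a further 1 h, then heated to ten temperatures (37-66.3 °C), and soluble protein was quantified by TMT mass spectrometry relative to 0.1% DMSO controls. The thermal stability score (sum of log2 fold changes minus the abundance score) was transformed to a z-score; mean of n = 3 experiments.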
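Further: each temperature applied for 3 min, abundance score taken as mean log2 fold change at the two lowest temperatures, z-score obtained by mean subtraction and division by SD.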

UniProt Q15527, sequence (Q15527 whole entry): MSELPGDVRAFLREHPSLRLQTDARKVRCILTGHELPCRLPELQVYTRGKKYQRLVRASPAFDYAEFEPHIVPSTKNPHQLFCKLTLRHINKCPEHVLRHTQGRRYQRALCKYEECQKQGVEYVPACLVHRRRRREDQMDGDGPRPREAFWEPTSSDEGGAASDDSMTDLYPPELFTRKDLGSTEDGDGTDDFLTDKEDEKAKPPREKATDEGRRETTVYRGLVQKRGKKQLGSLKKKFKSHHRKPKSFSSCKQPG
UniProt Q8IWZ8, sequence (Q8IWZ8 whole entry): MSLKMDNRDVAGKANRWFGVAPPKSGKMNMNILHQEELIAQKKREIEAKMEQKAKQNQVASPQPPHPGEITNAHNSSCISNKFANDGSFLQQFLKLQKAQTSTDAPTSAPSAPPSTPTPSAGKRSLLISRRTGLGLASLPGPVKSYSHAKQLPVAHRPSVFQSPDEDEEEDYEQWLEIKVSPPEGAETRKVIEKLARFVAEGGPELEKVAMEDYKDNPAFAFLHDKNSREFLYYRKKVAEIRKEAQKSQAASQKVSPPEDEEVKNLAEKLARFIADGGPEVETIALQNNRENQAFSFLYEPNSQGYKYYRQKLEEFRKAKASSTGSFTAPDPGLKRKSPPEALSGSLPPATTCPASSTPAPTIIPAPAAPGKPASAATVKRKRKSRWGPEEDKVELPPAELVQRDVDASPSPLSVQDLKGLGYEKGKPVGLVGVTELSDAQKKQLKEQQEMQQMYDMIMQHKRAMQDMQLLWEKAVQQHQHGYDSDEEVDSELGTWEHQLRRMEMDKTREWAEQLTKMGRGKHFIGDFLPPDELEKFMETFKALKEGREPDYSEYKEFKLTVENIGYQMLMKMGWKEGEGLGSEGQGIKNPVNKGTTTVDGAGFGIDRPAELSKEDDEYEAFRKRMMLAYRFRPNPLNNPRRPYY
UniProt Q9BYV8, sequence (Q9BYV8 whole entry): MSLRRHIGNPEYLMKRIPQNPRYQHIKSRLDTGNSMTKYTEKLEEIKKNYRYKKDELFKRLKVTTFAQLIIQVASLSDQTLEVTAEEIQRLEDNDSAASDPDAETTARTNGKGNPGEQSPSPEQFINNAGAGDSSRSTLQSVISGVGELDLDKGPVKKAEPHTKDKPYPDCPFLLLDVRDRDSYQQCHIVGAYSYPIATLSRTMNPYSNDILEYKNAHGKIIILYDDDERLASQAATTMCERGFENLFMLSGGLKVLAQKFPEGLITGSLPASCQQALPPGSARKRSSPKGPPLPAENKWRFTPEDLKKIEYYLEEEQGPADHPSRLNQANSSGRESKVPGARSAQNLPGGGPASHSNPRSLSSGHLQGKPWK
UniProt Q8TB72, sequence (Q8TB72 whole entry): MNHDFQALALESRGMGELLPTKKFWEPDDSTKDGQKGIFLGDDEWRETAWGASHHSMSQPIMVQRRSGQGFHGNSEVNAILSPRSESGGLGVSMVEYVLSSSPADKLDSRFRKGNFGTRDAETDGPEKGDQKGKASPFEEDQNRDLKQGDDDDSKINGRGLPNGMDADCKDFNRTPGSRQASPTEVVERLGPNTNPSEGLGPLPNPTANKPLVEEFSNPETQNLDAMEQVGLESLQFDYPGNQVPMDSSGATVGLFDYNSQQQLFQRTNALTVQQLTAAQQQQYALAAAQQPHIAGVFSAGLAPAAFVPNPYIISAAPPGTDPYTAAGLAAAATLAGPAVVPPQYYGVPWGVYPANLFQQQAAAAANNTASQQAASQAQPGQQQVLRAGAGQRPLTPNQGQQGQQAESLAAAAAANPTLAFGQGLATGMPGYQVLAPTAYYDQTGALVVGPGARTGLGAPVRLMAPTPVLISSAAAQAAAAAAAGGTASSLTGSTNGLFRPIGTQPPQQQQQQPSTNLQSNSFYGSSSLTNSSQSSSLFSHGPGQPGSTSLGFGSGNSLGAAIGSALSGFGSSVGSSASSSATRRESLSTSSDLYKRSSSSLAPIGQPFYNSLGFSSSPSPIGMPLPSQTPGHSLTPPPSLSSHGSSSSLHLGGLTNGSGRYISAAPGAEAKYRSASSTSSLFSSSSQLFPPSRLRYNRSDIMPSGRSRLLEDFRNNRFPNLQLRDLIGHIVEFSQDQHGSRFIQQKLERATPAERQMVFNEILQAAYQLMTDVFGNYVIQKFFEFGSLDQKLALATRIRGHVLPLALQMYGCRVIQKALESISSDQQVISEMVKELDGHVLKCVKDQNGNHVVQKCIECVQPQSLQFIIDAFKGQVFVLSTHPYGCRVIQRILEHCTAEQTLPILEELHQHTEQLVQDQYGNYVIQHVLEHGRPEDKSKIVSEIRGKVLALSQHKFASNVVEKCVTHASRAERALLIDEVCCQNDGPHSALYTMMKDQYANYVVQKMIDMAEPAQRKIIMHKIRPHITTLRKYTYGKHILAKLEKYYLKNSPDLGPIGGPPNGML
UniProt Q9BUP3, sequence (Q9BUP3 whole entry): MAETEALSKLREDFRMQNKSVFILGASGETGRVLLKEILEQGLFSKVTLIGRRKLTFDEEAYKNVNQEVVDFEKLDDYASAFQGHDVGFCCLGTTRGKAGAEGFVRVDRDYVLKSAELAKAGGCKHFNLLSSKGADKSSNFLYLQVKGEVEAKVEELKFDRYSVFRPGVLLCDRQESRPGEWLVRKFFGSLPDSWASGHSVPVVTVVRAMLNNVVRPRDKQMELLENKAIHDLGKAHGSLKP
UniProt P07311, sequence (P07311 whole entry): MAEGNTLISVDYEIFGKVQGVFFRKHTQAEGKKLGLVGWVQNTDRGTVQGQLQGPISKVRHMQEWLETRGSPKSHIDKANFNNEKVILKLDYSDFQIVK
UniProt Q6P1K2, sequence (Q6P1K2 whole entry): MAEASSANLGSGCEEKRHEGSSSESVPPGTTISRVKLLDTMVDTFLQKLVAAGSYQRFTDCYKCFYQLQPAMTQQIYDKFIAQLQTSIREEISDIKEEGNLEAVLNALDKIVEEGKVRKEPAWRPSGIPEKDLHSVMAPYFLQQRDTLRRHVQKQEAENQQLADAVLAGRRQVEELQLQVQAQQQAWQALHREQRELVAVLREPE
UniProt P49137, sequence (P49137 whole entry, looked up): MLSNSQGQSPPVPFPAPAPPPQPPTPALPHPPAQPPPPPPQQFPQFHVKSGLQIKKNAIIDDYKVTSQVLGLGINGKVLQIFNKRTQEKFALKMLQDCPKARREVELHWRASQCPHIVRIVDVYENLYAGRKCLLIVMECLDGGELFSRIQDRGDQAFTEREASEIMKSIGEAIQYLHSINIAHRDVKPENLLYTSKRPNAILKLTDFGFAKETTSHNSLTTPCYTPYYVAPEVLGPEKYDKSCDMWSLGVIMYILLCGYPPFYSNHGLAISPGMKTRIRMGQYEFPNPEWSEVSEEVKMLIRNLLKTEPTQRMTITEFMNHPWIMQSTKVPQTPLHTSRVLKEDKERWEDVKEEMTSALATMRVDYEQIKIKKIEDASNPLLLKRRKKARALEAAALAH
UniProt Q14232, sequence (Q14232 whole entry): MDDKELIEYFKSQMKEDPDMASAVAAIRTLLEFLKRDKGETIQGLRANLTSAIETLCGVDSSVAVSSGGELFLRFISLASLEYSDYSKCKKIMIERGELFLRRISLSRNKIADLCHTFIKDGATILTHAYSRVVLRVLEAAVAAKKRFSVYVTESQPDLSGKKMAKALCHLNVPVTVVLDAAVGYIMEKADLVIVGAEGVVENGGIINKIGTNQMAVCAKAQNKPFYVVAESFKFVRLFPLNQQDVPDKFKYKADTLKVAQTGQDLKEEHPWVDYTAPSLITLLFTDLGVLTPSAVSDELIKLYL
UniProt Q9Y3P9, sequence (Q9Y3P9 whole entry): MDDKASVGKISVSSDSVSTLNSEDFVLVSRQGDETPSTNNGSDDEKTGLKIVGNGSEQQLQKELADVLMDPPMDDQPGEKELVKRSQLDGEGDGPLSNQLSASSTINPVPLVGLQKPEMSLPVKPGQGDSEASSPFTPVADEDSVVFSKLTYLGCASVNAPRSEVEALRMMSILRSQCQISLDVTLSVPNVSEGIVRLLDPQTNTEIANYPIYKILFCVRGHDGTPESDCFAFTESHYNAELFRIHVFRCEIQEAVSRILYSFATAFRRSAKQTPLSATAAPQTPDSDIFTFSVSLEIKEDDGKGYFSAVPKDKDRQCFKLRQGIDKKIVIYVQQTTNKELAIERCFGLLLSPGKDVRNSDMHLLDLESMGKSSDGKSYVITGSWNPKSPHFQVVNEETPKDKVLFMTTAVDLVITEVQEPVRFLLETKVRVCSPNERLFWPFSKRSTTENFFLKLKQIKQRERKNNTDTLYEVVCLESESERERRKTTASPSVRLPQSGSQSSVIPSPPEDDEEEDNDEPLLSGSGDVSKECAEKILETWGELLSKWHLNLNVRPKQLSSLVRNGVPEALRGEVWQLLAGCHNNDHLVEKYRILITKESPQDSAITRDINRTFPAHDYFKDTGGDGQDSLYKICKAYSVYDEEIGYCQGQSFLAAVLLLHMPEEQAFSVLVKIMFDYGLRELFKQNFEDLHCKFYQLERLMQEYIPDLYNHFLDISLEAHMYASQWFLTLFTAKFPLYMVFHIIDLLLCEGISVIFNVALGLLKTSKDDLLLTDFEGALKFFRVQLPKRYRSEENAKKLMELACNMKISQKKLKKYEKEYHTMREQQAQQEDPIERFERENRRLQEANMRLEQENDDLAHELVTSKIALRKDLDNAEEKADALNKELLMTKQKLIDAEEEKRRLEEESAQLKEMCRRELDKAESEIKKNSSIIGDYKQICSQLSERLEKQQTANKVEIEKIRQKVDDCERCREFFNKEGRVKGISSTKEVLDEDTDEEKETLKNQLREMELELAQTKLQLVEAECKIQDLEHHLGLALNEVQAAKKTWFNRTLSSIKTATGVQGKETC
UniProt Q9NQ92, sequence (Q9NQ92 whole entry): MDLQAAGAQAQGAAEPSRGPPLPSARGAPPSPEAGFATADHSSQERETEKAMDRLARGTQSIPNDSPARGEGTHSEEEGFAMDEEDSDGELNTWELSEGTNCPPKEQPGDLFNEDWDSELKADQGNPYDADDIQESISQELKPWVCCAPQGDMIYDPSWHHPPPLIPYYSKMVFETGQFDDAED

Target | thermal stability z-score
RINT1 (UniProt Q6NUQ1) | -0.699
DCP2 (UniProt Q8IU60) | -0.0416
AGPS (UniProt O00116) | -1.96
ECHDC1 (UniProt Q9NTX5) | 0.928
RBM22 (UniProt Q9NW64) | -0.0944
CLUH (UniProt O75153) | 0.336
FHL2 (UniProt Q14192) | -1.64
COLGALT1 (UniProt Q8NBJ5) | -4.85
UROD (UniProt P06132) | 0.0739
PLEKHA5 (UniProt Q9HAU0) | 0.191
CEP41 (UniProt Q9BYV8) | -0.0855
PMF1 (UniProt Q6P1K2) | 0.0314
NIPBL (UniProt Q6KC79) | -0.0211
ACYP1 (UniProt P07311) | -0.11
LPIN1 (UniProt Q14693) | -0.429
TRIOBP (UniProt Q9H2D6) | -0.339
PSMD14 (UniProt O00487) | 0.501
WDR53 (UniProt Q7Z5U6) | 0.164
MORF4L2 (UniProt Q15014) | -0.451
ADSL (UniProt P30566) | -0.0252
MPP7 (UniProt Q5T2T1) | -0.0378
TSTA3 (UniProt Q13630) | -0.467
TAB1 (UniProt Q15750) | -0.188
GYG1 (UniProt P46976) | -0.215
TSR3 (UniProt Q9UJK0) | -0.214
NDUFV3 (UniProt P56181) | 0.238
HTATIP2 (UniProt Q9BUP3) | -0.914
SUGP1 (UniProt Q8IWZ8) | 0.164

Target | thermal stability z-score
EIF2B1 (UniProt Q14232) | 0.317
PIH1D1 (UniProt Q9NWS0) | 1.07
UBQLN2 (UniProt Q9UHD9) | 1.26
MAN2B1 (UniProt O00754) | -1.18
SEH1L (UniProt Q96EE3) | 0.886
FBXO30 (UniProt Q8TB52) | -0.102
LAMP2 (UniProt P13473) | -0.0628
MTUS1 (UniProt Q9ULD2) | -0.0967
NAB2 (UniProt Q15742) | -0.402
MSH6 (UniProt P52701) | 0.0377
COPRS (UniProt Q9NQ92) | 0.227
PUM2 (UniProt Q8TB72) | -0.565
RABGAP1 (UniProt Q9Y3P9) | -0.333
PALM (UniProt O75781) | -0.195
RCHY1 (UniProt Q96PM5) | -0.131
EIF3B (UniProt P55884) | -0.333
THOC1 (UniProt Q96FV9) | 0.298
DDX27 (UniProt Q96GQ7) | 0.47
VAC14 (UniProt Q08AM6) | -0.483
HGH1 (UniProt Q9BTY7) | 0.403
MAPKAPK2 (UniProt P49137) | 0.451
FAM172A (UniProt Q8WUF8) | 0.954
SDR16C5 (UniProt Q8N3Y7) | -0.26
UBE2E2 (UniProt Q96LR5) | -0.607
MPST (UniProt P25325) | 0.689
ANXA4 (UniProt P09525) | 1.42
SURF2 (UniProt Q15527) | -0.0697

Same assay, conditions: HeLa; lipoamide concentration 100 µM; arsenate co-treatment: none

Target | thermal stability z-score
RINT1 (UniProt Q6NUQ1) | -0.111
DCP2 (UniProt Q8IU60) | 0.195
AGPS (UniProt O00116) | -1.23
ECHDC1 (UniProt Q9NTX5) | 0.478
RBM22 (UniProt Q9NW64) | 0.0307
CLUH (UniProt O75153) | 1.47
FHL2 (UniProt Q14192) | -0.905
COLGALT1 (UniProt Q8NBJ5) | -4.14
UROD (UniProt P06132) | 0.0184
PLEKHA5 (UniProt Q9HAU0) | 0.254
CEP41 (UniProt Q9BYV8) | -0.44
PMF1 (UniProt Q6P1K2) | -0.0395
NIPBL (UniProt Q6KC79) | -0.00358
ACYP1 (UniProt P07311) | -0.304
LPIN1 (UniProt Q14693) | -0.906
TRIOBP (UniProt Q9H2D6) | -0.147
PSMD14 (UniProt O00487) | 0.524
WDR53 (UniProt Q7Z5U6) | 0.989
MORF4L2 (UniProt Q15014) | -0.148
ADSL (UniProt P30566) | -0.429
MPP7 (UniProt Q5T2T1) | -0.274
TSTA3 (UniProt Q13630) | -0.784
TAB1 (UniProt Q15750) | -0.291
GYG1 (UniProt P46976) | 0.14
TSR3 (UniProt Q9UJK0) | -0.723
NDUFV3 (UniProt P56181) | 0.504
HTATIP2 (UniProt Q9BUP3) | -0.584
SUGP1 (UniProt Q8IWZ8) | -0.049

Target | thermal stability z-score
EIF2B1 (UniProt Q14232) | 0.317
PIH1D1 (UniProt Q9NWS0) | 0.114
UBQLN2 (UniProt Q9UHD9) | 0.932
MAN2B1 (UniProt O00754) | -0.63
SEH1L (UniProt Q96EE3) | 0.611
FBXO30 (UniProt Q8TB52) | -0.208
LAMP2 (UniProt P13473) | -0.138
MTUS1 (UniProt Q9ULD2) | 0.692
NAB2 (UniProt Q15742) | -2.02
MSH6 (UniProt P52701) | 0.218
COPRS (UniProt Q9NQ92) | 0.791
PUM2 (UniProt Q8TB72) | 0.382
RABGAP1 (UniProt Q9Y3P9) | -0.253
PALM (UniProt O75781) | -0.143
RCHY1 (UniProt Q96PM5) | -0.0834
EIF3B (UniProt P55884) | 0.0629
THOC1 (UniProt Q96FV9) | -0.0559
DDX27 (UniProt Q96GQ7) | 0.52
VAC14 (UniProt Q08AM6) | -0.0923
HGH1 (UniProt Q9BTY7) | 0.226
MAPKAPK2 (UniProt P49137) | 0.459
FAM172A (UniProt Q8WUF8) | 0.472
SDR16C5 (UniProt Q8N3Y7) | -0.252
UBE2E2 (UniProt Q96LR5) | -0.124
MPST (UniProt P25325) | 0.913
ANXA4 (UniProt P09525) | 1.61
SURF2 (UniProt Q15527) | 0.247

Each target was assayed with O=[As]([O-])(O)O.[K+] [potassium arsenate] in the same assay as above. Conditions: HeLa; arsenate concentration 1 mM.
Procedure: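 Cellular thermal proteome profiling in HeLa cells treated with 1 mM arsenate for 1 h (DMSO pretreatment), heated to ten temperatures (37-66.3 °C). Soluble protein was quantified by TMT mass spectrometry relative to DMSO controls; the thermal stability score was transformed to a z-score; mean of n = 3 experiments.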

Target | thermal stability z-score
RINT1 (UniProt Q6NUQ1) | 0.354
DCP2 (UniProt Q8IU60) | -0.203
AGPS (UniProt O00116) | -0.854
ECHDC1 (UniProt Q9NTX5) | 0.479
RBM22 (UniProt Q9NW64) | -1.96
CLUH (UniProt O75153) | -0.134
FHL2 (UniProt Q14192) | -6.31
COLGALT1 (UniProt Q8NBJ5) | 0.633
UROD (UniProt P06132) | -0.0518
PLEKHA5 (UniProt Q9HAU0) | 0.0794
CEP41 (UniProt Q9BYV8) | -0.106
PMF1 (UniProt Q6P1K2) | 0.367
NIPBL (UniProt Q6KC79) | -0.167
ACYP1 (UniProt P07311) | -0.451
LPIN1 (UniProt Q14693) | -1.07
TRIOBP (UniProt Q9H2D6) | 0.379
PSMD14 (UniProt O00487) | -0.0143
WDR53 (UniProt Q7Z5U6) | 1.07
MORF4L2 (UniProt Q15014) | -0.58
ADSL (UniProt P30566) | -1.53
MPP7 (UniProt Q5T2T1) | -0.0635
TSTA3 (UniProt Q13630) | -0.387
TAB1 (UniProt Q15750) | -0.294
GYG1 (UniProt P46976) | -0.536
TSR3 (UniProt Q9UJK0) | -1.75
NDUFV3 (UniProt P56181) | -0.157
HTATIP2 (UniProt Q9BUP3) | 0.453
SUGP1 (UniProt Q8IWZ8) | 0.928

Target | thermal stability z-score
EIF2B1 (UniProt Q14232) | 0.364
PIH1D1 (UniProt Q9NWS0) | 0.538
UBQLN2 (UniProt Q9UHD9) | -0.0552
MAN2B1 (UniProt O00754) | -0.312
SEH1L (UniProt Q96EE3) | 0.803
FBXO30 (UniProt Q8TB52) | -0.959
LAMP2 (UniProt P13473) | 0.0434
MTUS1 (UniProt Q9ULD2) | 0.0626
NAB2 (UniProt Q15742) | 1.18
MSH6 (UniProt P52701) | -0.142
COPRS (UniProt Q9NQ92) | -0.822
PUM2 (UniProt Q8TB72) | -0.343
RABGAP1 (UniProt Q9Y3P9) | 0.318
PALM (UniProt O75781) | -0.681
RCHY1 (UniProt Q96PM5) | -0.571
EIF3B (UniProt P55884) | 0.472
THOC1 (UniProt Q96FV9) | -0.258
DDX27 (UniProt Q96GQ7) | -0.231
VAC14 (UniProt Q08AM6) | -0.61
HGH1 (UniProt Q9BTY7) | 0.787
MAPKAPK2 (UniProt P49137) | 0.48
FAM172A (UniProt Q8WUF8) | 0.275
SDR16C5 (UniProt Q8N3Y7) | 0.0129
UBE2E2 (UniProt Q96LR5) | 4.13
MPST (UniProt P25325) | -0.099
ANXA4 (UniProt P09525) | 0.225
SURF2 (UniProt Q15527) | -0.529
